In a compilation of properties of binary mixtures (doi:10.1021/acs.jced.0c00740):

Assay: xn = mol fraction of the nth substance listed
Settings: 101 kPa

C[NH+](C)C.O=S(=O)([N-]S(=O)(=O)C(F)(F)F)C(F)(F)F + N#CCCCC#N
x1 = 0.2167
Settings | viscosity [mPa·s]
278 K | 23
283 K | 18.87
293 K | 13.35
303 K | 9.89
308 K | 8.64
313 K | 7.609
323 K | 6.028
328 K | 5.417
333 K | 4.899
338 K | 4.457
343 K | 4.07
348 K | 3.741

C[S+](C)C.O=S(=O)([N-]S(=O)(=O)C(F)(F)F)C(F)(F)F + N#CCCCC#N
x1 = 0.2085
Settings | viscosity [mPa·s]
283 K | 18.02
288 K | 15.07
293 K | 12.76
298 K | 10.92
308 K | 8.25
313 K | 7.26
323 K | 5.744
343 K | 3.871
353 K | 3.283
